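Following 48 hours of exposure in 96-well plates, responses at five concentrations were used to interpolate endpoints linearly. GI50 marks 50% less growth. At the TGI there is no net growth.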
Tests used:
Assay in all cases: NCI-60 cell line screen, 48 h
786-0 renal = test system: 786-0 renal
A498 renal = test system: A498 renal
A549 NSCLC = test system: A549 NSCLC
ACHN renal = test system: ACHN renal
BT-549 breast = test system: BT-549 breast
CCRF-CEM leukemia = test system: CCRF-CEM leukemia
COLO 205 colon = test system: COLO 205 colon
DU-145 prostate = test system: DU-145 prostate
EKVX NSCLC = test system: EKVX NSCLC
HCT-116 colon = test system: HCT-116 colon
HCT-15 colon = test system: HCT-15 colon
HL-60(TB) leukemia = test system: HL-60(TB) leukemia
HOP-62 NSCLC = test system: HOP-62 NSCLC
HOP-92 NSCLC = test system: HOP-92 NSCLC
HS 578T breast = test system: HS 578T breast
HT29 colon = test system: HT29 colon
IGROV1 ovarian = test system: IGROV1 ovarian
K-562 leukemia = test system: K-562 leukemia
KM12 colon = test system: KM12 colon
LOX IMVI melanoma = test system: LOX IMVI melanoma
M14 melanoma = test system: M14 melanoma
MALME-3M melanoma = test system: MALME-3M melanoma
MCF7 breast = test system: MCF7 breast
MDA-MB-231 breast = test system: MDA-MB-231 breast
MDA-MB-435 = test system: MDA-MB-435
MOLT-4 leukemia = test system: MOLT-4 leukemia
NCI-H226 lung = test system: NCI-H226 lung
NCI-H23 lung = test system: NCI-H23 lung
NCI-H460 lung = test system: NCI-H460 lung
NCI/ADR-RES ovarian = test system: NCI/ADR-RES ovarian
OVCAR-3 ovarian = test system: OVCAR-3 ovarian
OVCAR-4 ovarian = test system: OVCAR-4 ovarian
OVCAR-5 ovarian = test system: OVCAR-5 ovarian
OVCAR-8 ovarian = test system: OVCAR-8 ovarian
PC-3 prostate = test system: PC-3 prostate
RPMI-8226 leukemia = test system: RPMI-8226 leukemia
RXF 393 renal = test system: RXF 393 renal
SF-268 CNS = test system: SF-268 CNS
SF-539 CNS = test system: SF-539 CNS
SK-MEL-2 melanoma = test system: SK-MEL-2 melanoma
SK-MEL-28 melanoma = test system: SK-MEL-28 melanoma
SK-MEL-5 melanoma = test system: SK-MEL-5 melanoma
SK-OV-3 ovarian = test system: SK-OV-3 ovarian
SN12C renal = test system: SN12C renal
SNB-19 CNS = test system: SNB-19 CNS
SNB-75 CNS = test system: SNB-75 CNS
SW-620 colon = test system: SW-620 colon
T-47D breast = test system: T-47D breast
TK-10 renal = test system: TK-10 renal
U251 CNS = test system: U251 CNS
UACC-257 melanoma = test system: UACC-257 melanoma
UACC-62 melanoma = test system: UACC-62 melanoma
UO-31 renal = test system: UO-31 renal

## CCN(CC)CCNc1ccc([N+](=O)[O-])c2sc3ccccc3c(=O)c12
786-0 renal
  GI50: 958 nM
  TGI: 2350 nM
A498 renal
  GI50: 591 nM
  TGI: 2160 nM
A549 NSCLC
  GI50: 656 nM
  TGI: 2150 nM
ACHN renal
  GI50: 646 nM
  TGI: 4440 nM
BT-549 breast
  GI50: 1740 nM
  TGI: 7800 nM
CCRF-CEM leukemia
  GI50: 732 nM
  TGI: 3260 nM
COLO 205 colon
  GI50: 1350 nM
  TGI: 3580 nM
DU-145 prostate
  GI50: 766 nM
  TGI: 2050 nM
EKVX NSCLC
  GI50: 692 nM
  TGI: 2530 nM
HCT-116 colon
  GI50: 360 nM
  TGI: 1560 nM
HCT-15 colon
  GI50: 1700 nM
  TGI: 7590 nM
HL-60(TB) leukemia
  GI50: 783 nM
  TGI: 3270 nM
HOP-62 NSCLC
  GI50: 1270 nM
  TGI: 3640 nM
HOP-92 NSCLC
  GI50: 1260 nM
  TGI: 3360 nM
HS 578T breast
  GI50: 2170 nM
  TGI: 8150 nM
HT29 colon
  GI50: 392 nM
  TGI: 1590 nM
IGROV1 ovarian
  GI50: 285 nM
  TGI: 1020 nM
K-562 leukemia
  GI50: 582 nM
  TGI: 3390 nM
KM12 colon
  GI50: 1190 nM
  TGI: 2550 nM
LOX IMVI melanoma
  GI50: 421 nM
  TGI: 1790 nM
M14 melanoma
  GI50: 1360 nM
  TGI: 2850 nM
MALME-3M melanoma
  GI50: 1470 nM
  TGI: 3630 nM
MCF7 breast
  GI50: 1270 nM
  TGI: 4740 nM
MDA-MB-231 breast
  GI50: 2290 nM
  TGI: 9150 nM
MDA-MB-435
  GI50: 901 nM
  TGI: 2320 nM
MOLT-4 leukemia
  GI50: 386 nM
  TGI: 1870 nM
NCI-H226 lung
  GI50: 2060 nM
  TGI: 6600 nM
NCI-H23 lung
  GI50: 1230 nM
  TGI: 2780 nM
NCI-H460 lung
  GI50: 443 nM
  TGI: 1960 nM
NCI/ADR-RES ovarian
  GI50: 586 nM
  TGI: 2720 nM
OVCAR-3 ovarian
  GI50: 1320 nM
  TGI: 2690 nM
OVCAR-4 ovarian
  GI50: 1350 nM
  TGI: 2810 nM
OVCAR-5 ovarian
  GI50: 3470 nM
  TGI: 15200 nM
OVCAR-8 ovarian
  GI50: 571 nM
  TGI: 2420 nM
PC-3 prostate
  GI50: 1050 nM
  TGI: 2470 nM
RPMI-8226 leukemia
  GI50: 915 nM
  TGI: 2840 nM
RXF 393 renal
  GI50: 1430 nM
  TGI: 3030 nM
SF-268 CNS
  GI50: 1080 nM
  TGI: 2500 nM
SF-539 CNS
  GI50: 3090 nM
  TGI: 10800 nM
SK-MEL-2 melanoma
  GI50: 1210 nM
  TGI: 5530 nM
SK-MEL-28 melanoma
  GI50: 1770 nM
  TGI: 3300 nM
SK-MEL-5 melanoma
  GI50: 1530 nM
  TGI: 2900 nM
SK-OV-3 ovarian
  GI50: 2080 nM
  TGI: 6300 nM
SN12C renal
  GI50: 1070 nM
  TGI: 11400 nM
SNB-19 CNS
  GI50: 2220 nM
  TGI: 13000 nM
SNB-75 CNS
  GI50: 1650 nM
  TGI: 4780 nM
SW-620 colon
  GI50: 478 nM
  TGI: 1930 nM
T-47D breast
  GI50: 4400 nM
  TGI: 18900 nM
TK-10 renal
  GI50: 624 nM
  TGI: 2240 nM
U251 CNS
  GI50: 607 nM
  TGI: 2010 nM
UACC-257 melanoma
  GI50: 1370 nM
  TGI: 3120 nM
UACC-62 melanoma
  GI50: 2790 nM
  TGI: 16800 nM
UO-31 renal
  GI50: 284 nM
  TGI: 1660 nM

Reference: PubChem BioAssay (NCI)
